Assay type in all cases: biochemical
In assay [1] the target is T1, human FLT-3 (Arg571-Ser993) (Homo sapiens, UniProt P36888).
T1 construct: human FLT-3 (Arg571-Ser993); GST (N); purchased Cell Signaling Technology; host or cells: baculovirus expression system
T1 sequence (P36888 571-993): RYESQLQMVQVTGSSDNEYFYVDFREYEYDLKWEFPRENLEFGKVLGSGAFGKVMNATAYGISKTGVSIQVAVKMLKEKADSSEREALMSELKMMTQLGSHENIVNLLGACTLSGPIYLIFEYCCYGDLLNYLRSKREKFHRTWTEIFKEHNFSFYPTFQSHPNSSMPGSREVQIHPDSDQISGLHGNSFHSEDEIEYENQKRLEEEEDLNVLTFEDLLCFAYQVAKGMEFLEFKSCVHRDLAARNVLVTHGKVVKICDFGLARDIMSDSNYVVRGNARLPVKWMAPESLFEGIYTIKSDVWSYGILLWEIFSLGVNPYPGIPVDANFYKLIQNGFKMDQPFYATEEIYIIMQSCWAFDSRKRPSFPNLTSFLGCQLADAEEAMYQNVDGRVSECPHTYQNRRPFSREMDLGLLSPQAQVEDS
The experiment in a line: FLT-3 kinase assay (HTScan kit, DELFIA). The conditions noted are these: for inhibition at 0.1 µM: compound at 0.1 μM, read-out: FLT-3 0.1 μM, % of inhibition relative to control; for inhibition at 1 µM: compound at 1 μM, read-out: FLT-3 1 μM, % of inhibition relative to control. Put shortly:
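GST-tagged human FLT-3 (Arg571-Ser993, baculovirus-expressed) phosphorylated 1.5 μM biotinylated gastrin precursor peptide with 20 μM ATP in HEPES pH 7.5, Mg/Mn buffer and 1% DMSO. After 5 min preincubation, the reaction ran 30 min at room temperature. Phosphorylation was read by DELFIA.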

Assay [2] concerns the target T2, human VEGFR-2 (Val789-Val1356) (Homo sapiens, UniProt P35968).
T2 construct: human VEGFR-2 (Val789-Val1356); GST (N); purchased Cell Signaling Technology; host or cells: baculovirus expression system
The experiment in a line: KDR kinase assay (HTScan VEGFR-2 kit, DELFIA). The conditions noted are these: for inhibition at 0.1 µM: compound at 0.1 μM, read-out: KDR 0.1 μM, % of inhibition relative to control; for inhibition at 1 µM: compound at 1 μM, read-out: KDR 1 μM, % of inhibition relative to control. Put shortly:
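GST-tagged human VEGFR-2 (Val789-Val1356) from baculovirus, with 1.5 μM biotinylated gastrin precursor peptide and 20 μM ATP in HEPES pH 7.5, Mg/Mn, vanadate, DTT, 1% DMSO. Pre-incubation 5 min, reaction 30 min at room temperature; phosphorylation read by DELFIA.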

In assay [3] the target is T3, human EGFR (His672-Ala1210) (Homo sapiens, UniProt P00533).
T3 construct: human EGFR (His672-Ala1210); GST (N); purchased Cell Signaling Technology; host or cells: baculovirus expression system
T3 sequence (P00533 672-1210): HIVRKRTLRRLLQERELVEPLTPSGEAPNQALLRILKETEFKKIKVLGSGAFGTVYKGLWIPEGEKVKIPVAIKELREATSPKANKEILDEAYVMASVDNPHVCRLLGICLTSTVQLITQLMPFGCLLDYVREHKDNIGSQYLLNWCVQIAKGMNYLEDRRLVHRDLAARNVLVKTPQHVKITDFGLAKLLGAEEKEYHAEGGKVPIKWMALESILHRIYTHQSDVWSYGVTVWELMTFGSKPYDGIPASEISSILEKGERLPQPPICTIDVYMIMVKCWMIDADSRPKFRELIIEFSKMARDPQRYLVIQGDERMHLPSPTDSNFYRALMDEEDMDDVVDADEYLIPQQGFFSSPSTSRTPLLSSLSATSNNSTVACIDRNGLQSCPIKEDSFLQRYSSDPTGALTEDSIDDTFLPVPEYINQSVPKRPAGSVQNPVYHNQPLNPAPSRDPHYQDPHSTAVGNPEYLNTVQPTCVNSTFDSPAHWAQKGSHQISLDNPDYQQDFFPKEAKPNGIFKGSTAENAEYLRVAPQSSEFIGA
The experiment in a line: EGFR kinase assay (HTScan kit, DELFIA). Particulars: for inhibition at 0.1 µM: compound at 0.1 μM, read-out: EGFR 0.1 μM, % of inhibition relative to control; for inhibition at 1 µM: compound at 1 μM, read-out: EGFR 1 μM, % of inhibition relative to control. Here is the method: Compounds 1-100 were treated for their efficacy in inhibiting activities of FLT-3, c-KIT, KDR/Flk-1, PDGFR-beta, EGFR, and PKC kinases by biochemical DELFIA (Dissociation Enhanced Lanthanide FIA) assays according to the procedure described below. The assays were conducted by, Division of Cell Engineering, Biomedical Engineering Research Laboratories, Industrial Technology Research Institute, Bldg. 53, 195, sec. 4, Chung Hsing Rd. Chutung, Hsinchu, Taiwan 310, R.O.C.
The EGFR assay was conducted following the protocol described in Protocol for HTScan® EGFR Kinase Assay Kit (Cell Signaling Technology®). The assay was conducted under the following conditions: EGFR source: The GST-kinase fusion protein was produced using a baculovirus expression system with a construct expressing human EGFR (His672-Ala1210) (GenBank Accession No. NM_005228) with an amino-terminal GST tag, substrate: 1.5 μM This biotinylated peptide contains the residues surrounding Tyr-66 of PTP1B, vehicle: 1% DMSO, pre-incubation time/temperature: 5 minutes at room temperature, incubation time/temperature: 30 minutes at room temperature, incubation buffer: 60 mM HEPES pH 7.5, 5 mM MgCl2, 5 mM MnCl2, 3 μM Na3VO4, 1.25 mM DTT, 20 μM ATP, and quantitative method: DELFIA® Assay.

Assay [4] has as its target T4, human c-KIT (Thr544-Val976) (Homo sapiens, UniProt P10721).
T4 construct: human c-KIT (Thr544-Val976); GST (N); purchased Cell Signaling Technology; host or cells: baculovirus expression system
In words: c-KIT kinase assay (HTScan kit, DELFIA). Particulars: for inhibition at 0.1 µM: compound at 0.1 μM, read-out: c-KIT 0.1 μM, % of inhibition relative to control; for inhibition at 1 µM: compound at 1 μM, read-out: c-KIT 1 μM, % of inhibition relative to control. Put shortly:
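GST-tagged human c-KIT (Thr544-Val976) from baculovirus, with 1.5 μM biotinylated KDR Tyr-996 peptide and 20 μM ATP in HEPES pH 7.5 buffer containing Mg2+/Mn2+ and 1% DMSO. Enzyme and compound pre-incubated 5 min, reaction run 30 min at room temperature; phosphorylation detected by DELFIA.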

T2 sequence (P35968 789-1356): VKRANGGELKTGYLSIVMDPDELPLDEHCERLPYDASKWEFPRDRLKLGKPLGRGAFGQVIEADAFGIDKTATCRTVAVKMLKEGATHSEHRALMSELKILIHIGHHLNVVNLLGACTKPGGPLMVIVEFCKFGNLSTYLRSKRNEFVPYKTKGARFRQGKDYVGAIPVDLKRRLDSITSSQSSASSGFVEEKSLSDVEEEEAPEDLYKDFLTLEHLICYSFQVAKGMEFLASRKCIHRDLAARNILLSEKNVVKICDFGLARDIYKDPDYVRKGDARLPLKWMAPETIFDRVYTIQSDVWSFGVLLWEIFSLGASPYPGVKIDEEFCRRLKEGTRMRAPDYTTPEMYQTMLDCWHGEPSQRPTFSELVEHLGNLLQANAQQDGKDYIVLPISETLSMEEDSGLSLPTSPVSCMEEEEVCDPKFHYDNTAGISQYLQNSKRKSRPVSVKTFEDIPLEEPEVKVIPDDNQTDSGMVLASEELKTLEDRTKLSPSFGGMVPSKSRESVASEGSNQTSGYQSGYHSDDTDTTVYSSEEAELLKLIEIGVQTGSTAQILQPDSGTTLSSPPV
T4 sequence (P10721 544-976): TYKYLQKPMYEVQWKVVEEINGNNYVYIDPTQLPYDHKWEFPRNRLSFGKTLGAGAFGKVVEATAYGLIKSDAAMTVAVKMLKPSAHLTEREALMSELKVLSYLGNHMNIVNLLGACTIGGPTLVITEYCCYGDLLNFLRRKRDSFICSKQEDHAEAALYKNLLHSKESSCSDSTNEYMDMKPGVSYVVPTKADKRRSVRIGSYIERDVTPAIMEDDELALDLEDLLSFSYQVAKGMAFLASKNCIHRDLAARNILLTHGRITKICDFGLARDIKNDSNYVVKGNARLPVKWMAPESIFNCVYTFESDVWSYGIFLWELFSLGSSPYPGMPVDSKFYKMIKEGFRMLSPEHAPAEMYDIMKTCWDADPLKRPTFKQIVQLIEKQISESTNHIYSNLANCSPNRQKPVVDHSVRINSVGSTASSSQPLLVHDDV

Broadly, the inhibition is the relative decrease from the control value, in per cent. `O=C1Nc2ccc(F)cc2/C1=C\c1cc2cccccc-2c1` [Compound 40, 3-Azulen-2-ylmethylene-5-fluoro-1,3-dihydro-indol-2-one]: the inhibition at 0.1 µM in assay [1] came out at 84.3%; in assay [2], 13.8%; in assay [3], 10%; in assay [4] it was 80%. Also, the inhibition at 1 µM worked out at 95.5% in assay [1], 22.2% in assay [2], 17.3% in assay [3] and 80% in assay [4].
A word on the IC50: it is the concentration that gives 50% inhibition. Turning to `O=C1Nc2ccc(F)cc2/C1=C/c1cc2cccccc-2c1` [Compound 41, 3-Azulen-2-ylmethylene-5-fluoro-1,3-dihydro-indol-2-one], the inhibition at 0.1 µM in assay [1] is 74.7%; in assay [2], 25.2%; in assay [3], 6.4%; in assay [4] it was 76.6%. Further, the inhibition at 1 µM in assay [1] turned out to be 87.6%; in assay [2], 30.4%; in assay [3], 9.4%; in assay [4] it was 76.6%. In addition, the IC50 in assay [1] (read-out: FLT-3 kinase inhibition (IC50)) came out at 43.4 nM; in assay [4] (read-out: c-KIT kinase inhibition (IC50)) it was 6 nM.
On to `Cc1cc(C=C2C(=O)Nc3ccccc32)c2cccccc1-2` [Compound 37, 3-(3-Methyl-azulen-1-ylmethylene)-1,3-dihydro-indol-2-one], for which the inhibition at 0.1 µM was determined as 5.9% in assay [1], 2.9% in assay [3] and 53.2% in assay [4]. The inhibition at 1 µM in assay [1] came to 61.5%; in assay [2], 27.6%; in assay [3] it was 13.6%; in assay [4], 53.2%.
Take `Cc1cc(/C=C2/C(=O)Nc3ccc(F)cc32)c2cccccc1-2` [Compound 38, 5-Fluoro-3-(3-methyl-azulen-1-ylmethylene)-1,3-dihydro-indol-2-one]: the inhibition at 0.1 µM in assay [1] worked out at 40.5%; in assay [2], 2.3%; in assay [3] it was 0.8%; in assay [4], 72.6%. Besides, the inhibition at 1 µM amounted to 79% in assay [1], 8.4% in assay [2], 1.7% in assay [3] and 72.6% in assay [4].
As to `CN(C)c1nc2cccccc-2c1/C=C1/C(=O)Nc2ccccc21` [Compound 35, 3-(2-Dimethylamino-cyclohepta[b]pyrrol-3-ylmethylene)-1,3-dihydro-indol-2-one, with propan-2-ol], the inhibition at 1 µM in assay [2] was 20.3%. Moreover, in assay [3], the inhibition at 0.1 µM worked out at 9.5% and the inhibition at 1 µM turned out to be 12.1%.
As for `O=C1Nc2ccccc2/C1=C/c1cc2cccccc-2c1` [Compound 33, 3-Azulen-2-ylmethylene-1,3-dihydro-indol-2-one], the inhibition at 0.1 µM in assay [1] came out at 50.5%; in assay [2], 24.6%; in assay [3] it was 15.2%; in assay [4], 63.1%. In addition, the inhibition at 1 µM in assay [1] is 85.6%; in assay [2], 50.8%; in assay [3] it was 13%; in assay [4], 63.1%.
Take `Cc1ccc2c(c1)/C(=C\c1ccc3cccccc1-3)C(=O)N2` [Compound 47, 3-Azulen-1-ylmethylene-5-methyl-1,3-dihydro-indol-2-one]: the inhibition at 0.1 µM was determined as 0.5% in assay [1], 7.8% in assay [2], 8.3% in assay [3] and 30.7% in assay [4]. In addition, the inhibition at 1 µM in assay [1] amounted to 48.6%; in assay [2] it was 34%; in assay [3], 14.6%; in assay [4], 30.7%.
On to `O=C1Nc2ccc(-c3ccccc3)cc2/C1=C/c1ccc2cccccc1-2` [Compound 34, 3-Azulen-1-ylmethylene-5-phenyl-1,3-dihydro-indol-2-one], for which the results for the inhibition at 0.1 µM in assay [1], in assay [2] and in assay [3] were 0.8%, 8.9% and 6.1%, respectively. Besides, the results for the inhibition at 1 µM in assay [1], in assay [2] and in assay [3] were 1.9%, 18.2% and 11.7%, respectively.
Consider `COc1ccc2c(c1)NC(=O)/C2=C\c1ccc2cccccc1-2` [Compound 31, 3-Azulen-1-ylmethylene-6-methoxy-1,3-dihydro-indol-2-one], for which the inhibition at 1 µM in assay [1] worked out at 14.9%. In addition, the inhibition at 0.1 µM in assay [3] worked out at 0.2%.
Turning to `CCOC(=O)N1CCC(Nc2ccc3c(c2)/C(=C\c2cc(C)c4c(OCCCN(C)C)ccccc2-4)C(=O)N3)CC1` [Compound 85, 4-{3-[4-(3-Dimethylamino-propoxy)-3-methyl-azulen-1-ylmethylene]-2-oxo-2,3-dihydro-1H-indol-5-ylamino}-piperidine-1-carboxylic acid ethyl ester], the inhibition at 1 µM in assay [1] was 2%; in assay [2] it was 4.4%; in assay [4] it was 2.4%. In assay [4], the inhibition at 0.1 µM amounted to 2.4%.
With `Cc1cc(C=C2C(=O)Nc3ncccc32)c2ccccc(OCCCN(C)C)c1-2` [Compound 104, 3-(((3aZ,5Z,7E)-8-(3-(dimethylamino)propoxy)-1-methylazulen-3-yl)methylene)-1H-pyrrolo[2,3-b]pyridin-2(3H)-one], the inhibition at 0.1 µM worked out at 14.6% in assay [1], 30.1% in assay [2] and 42.5% in assay [4]. Moreover, the results for the inhibition at 1 µM in assay [1], in assay [2] and in assay [4] were 44.8%, 88% and 57.4%, respectively.
On to `CNS(=O)(=O)c1ccc2c(c1)/C(=C\c1cc(C)c3c(OCCCN(C)C)ccccc1-3)C(=O)N2` [Compound 88, 3-[4-(3-Dimethylamino-propoxy)-3-methyl-azulen-1-ylmethylene]-2-oxo-2,3-dihydro-1H-indole-5-sulfonic acid methylamide], for which the inhibition at 0.1 µM in assay [1] is 24.2%; in assay [4] it was 19.3%. Also, the inhibition at 1 µM was determined as 47.3% in assay [1], 16.8% in assay [2] and 19.3% in assay [4].
Take `CN(C)Cc1cc(/C=C2/C(=O)Nc3ccccc32)c2cccccc1-2` [Compound 58, 3-(3-Dimethylaminomethyl-azulen-1-ylmethylene)-1,3-dihydro-indol-2-one]: the inhibition at 0.1 µM amounted to 16.5% in assay [1], 12.1% in assay [2] and 18% in assay [4]. Moreover, the inhibition at 1 µM in assay [1] was 43.9%; in assay [2] it was 23.8%; in assay [4], 18%.
On to `Cc1cc(/C=C2/C(=O)N(Cc3ccccc3)c3ccccc32)c2c(C)ccc(C(C)C)cc1-2` [Compound 13, 1-Benzyl-3-(5-isopropyl-3,8-dimethyl-azulen-1-ylmethylene)-1,3-dihydro-indol-2-one], for which the inhibition at 0.1 µM amounted to 4.4% in assay [1], 54.1% in assay [2] and 66.2% in assay [4]. Further, the inhibition at 1 µM in assay [1] was 0.2%; in assay [2] it was 83.9%; in assay [4], 66.2%.

Source of the values: patent US7714146B2, “Azulene-oxindole compounds as multiple-kinase inhibitors and useful as anticancer agents” (Industrial Technology Research Institute, priority 2006, dated 2010).
